In article PMC12299477 (Viruses, 2025):
Where two headings read alike, the source gives them in different places.

Assays:
[1] = tested on: RSV-A2; experiment: Virus inhibition assay (plaque reduction), RSV-A2 on Hep-2 cells; type: cell-based; conditions: human respiratory syncytial virus; for activity at 0.3 µM / activity at 3 µM / activity at 33 µM: HEp-2, 72 h, read-out: Residual Virus Infectivity (%) RSV-A2
[2] = tested on: HCoV-OC43; experiment: Virus inhibition assay (focus reduction), HCoV-OC43 on MRC-5 cells; type: cell-based, human coronavirus; conditions: for activity at 0.3 µM / activity at 3 µM / activity at 33 µM: Betacoronavirus 1, OC43, MRC5, 20 h, read-out: Residual Virus Infectivity (%) HCoV-OC43; for EC50: Betacoronavirus 1, OC43, MRC5, read-out: EC50 (µM) (95% CI)
[3] = Cell viability MTS assay on MRC-5 cells; type: cell-based; conditions: human, same conditions as HCoV inhibition assay, read-out: CC50 (µM) (95% CI)
[4] = tested on: Hep-2 cells; experiment: Cytotoxic effect microscopically visible in the RSV-A2 screening; type: cell-based, human; set-up: key: -: Cytotoxic effect microscopically visible
[5] = tested on: MRC-5 cells; experiment: Cytotoxic effect microscopically visible in the HCoV-OC43 screening; type: cell-based, human; set-up: key: -: Cytotoxic effect microscopically visible; conditions: 33 µM
[6] = tested on: MDCK cells; experiment: Cytotoxic effect microscopically visible in the IFV-A H1N1 screening; type: cell-based, canine; set-up: key: -: Cytotoxic effect microscopically visible; conditions: 33 µM
[7] = Cell viability MTS assay on Hep-2 cells; conditions: human
[8] = tested on: IFV-A H1N1; experiment: Virus inhibition assay (focus reduction), IFV-A H1N1 on MDCK cells; type: cell-based; conditions: Influenza A virus, read-out: EC50 (µM) (95% CI)
[9] = Cell viability MTS assay on MDCK cells; conditions: dog
[10] = in vitro; conditions: dog
[11] = in vitro; conditions: human
[12] = RSV-A2, Hep-2 cells, read-out: EC50 (µM) (95% CI)

With `COc1ccc(-c2cc(C(=O)N[C@@H](Cc3ccc(O)cc3)C(=O)O)c3sc4ccc(OC5CCCCC5)cc4n3c2=O)cc1F` [Compound 2] as the compound, how does the activity at 0.3 µM [1] read?
The activity at 0.3 µM was 100%.

What about the activity at 3 µM [1] of the same compound?
The activity at 3 µM was 44%.

And the activity at 0.3 µM [2]?
Its activity at 0.3 µM is 95%.

And the activity at 3 µM [2]?
Its activity at 3 µM is 54%.

And the activity at 33 µM [2]?
The activity at 33 µM was 1%.

What about the EC50 [2] of the same compound?
Its EC50 is 4.67 µM.

What about the CC50 [3] of the same compound?
The CC50 was 82.9 µM.

And the “Cytotoxic effect microscopically visible” value ([4]; 33 µM)?
Its value is “-”.

For `O=C(NCc1ccccc1)c1cc(-c2ccccc2)c(=O)n2c1sc1ccc(OC3CCCCC3)cc12` [Compound 3], which activity at 0.3 µM [1] is on record?
The activity at 0.3 µM was 100%.

What about the activity at 3 µM [1] of the same compound?
The activity at 3 µM was 93%.

What about the activity at 33 µM [1] of the same compound?
Its activity at 33 µM is 67%.

Which “Cytotoxic effect microscopically visible” value ([4]; 33 µM) does the source give for `O=C(NCC1(C(=O)O)CC1)c1cc(-c2ccccc2)c(=O)n2c1sc1ccc(OC3CCCCC3)cc12` [Compound 4] here?
The value was “-”.

And the “Cytotoxic effect microscopically visible” value [5]?
The value was “-”.

With `O=C(N[C@@H](Cc1ccc(O)cc1)C(=O)O)c1cc(-c2ccccc2)c(=O)n2c1sc1cc(OC3CCCCC3)ccc12` [Compound 5] as the compound, how does the “Cytotoxic effect microscopically visible” value ([4]; 33 µM) read?
Its value is “-”.

What about the “Cytotoxic effect microscopically visible” value [5] of the same compound?
Its value is “-”.

Which “Cytotoxic effect microscopically visible” value ([4]; 3 µM) does the source give for `O=C(O)CC(NC(=O)c1cc(-c2ccccc2)c(=O)n2c1sc1ccc(OC3CCCCC3)cc12)c1ccccc1` (centres unmarked) [Compound 6] here?
Its value is “-”.

What about the “Cytotoxic effect microscopically visible” value ([4]; 33 µM) of the same compound?
The value was “-”.

What about the “Cytotoxic effect microscopically visible” value [5] of the same compound?
The value was “-”.

With `C[C@H](CO)NC(=O)c1cc(-c2ccccc2)c(=O)n2c1sc1ccc(OC3CCCCC3)cc12` [Compound 7] as the compound, how does the “Cytotoxic effect microscopically visible” value ([4]; 3 µM) read?
Its value is “-”.

What about the “Cytotoxic effect microscopically visible” value ([4]; 33 µM) of the same compound?
The value was “-”.

And the “Cytotoxic effect microscopically visible” value [5]?
Its value is “-”.

What about the “Cytotoxic effect microscopically visible” value [6] of the same compound?
Its value is “-”.

Which activity at 0.3 µM [1] does the source give for `O=C(N[C@@H](CO)C(=O)O)c1cc(-c2ccccc2)c(=O)n2c1sc1ccc(OC3CCCCC3)cc12` [Compound 8] here?
Its activity at 0.3 µM is 100%.

And the activity at 3 µM [1]?
Its activity at 3 µM is 100%.

What about the activity at 33 µM [1] of the same compound?
The activity at 33 µM was 98%.

With `O=C(N[C@@H](Cc1ccc(O)cc1)C(=O)O)c1cc(-c2ccc(Cl)cc2)c(=O)n2c1sc1ccc(OC3CCCCC3)cc12` [Compound 9] as the compound, how does the EC50 [2] read?
Its EC50 is 1.2 µM.

What about the CC50 [3] of the same compound?
Its CC50 is 55.6 µM.

And the “Cytotoxic effect microscopically visible” value ([4]; 33 µM)?
Its value is “-”.

For `O=C(O)CCNC(=O)c1cc(-c2ccccc2)c(=O)n2c1sc1ccc(OC3CCCCC3)cc12` [Compound 10], which EC50 [2] is on record?
Its EC50 is 7.97 µM.

And the CC50 [3]?
Its CC50 is over 200 µM.

And the “Cytotoxic effect microscopically visible” value ([4]; 33 µM)?
The value was “-”.

Which “Cytotoxic effect microscopically visible” value ([4]; 3 µM) does the source give for `O=C(c1cc(-c2ccccc2)c(=O)n2c1sc1ccc(OC3CCCCC3)cc12)N1CCC[C@@H](O)C1` [Compound 11] here?
The value was “-”.

What about the “Cytotoxic effect microscopically visible” value ([4]; 33 µM) of the same compound?
The value was “-”.

What about the “Cytotoxic effect microscopically visible” value [5] of the same compound?
Its value is “-”.

And the “Cytotoxic effect microscopically visible” value [6]?
Its value is “-”.

Which “Cytotoxic effect microscopically visible” value ([4]; 33 µM) does the source give for `NC(=O)CCNC(=O)c1cc(-c2ccccc2)c(=O)n2c1sc1ccc(OC3CCCCC3)cc12` [Compound 12] here?
Its value is “-”.

Which results are given for `O=C(NCc1ccc(O)cc1)c1cc(-c2ccccc2)c(=O)n2c1sc1ccc(OC3CCCCC3)cc12` [Compound 13]?
activity at 0.3 µM [1]: 100%; activity at 3 µM [1]: 15%; activity at 33 µM [1]: 0%; EC50 ([1]; HEp-2, read-out: EC50 (µM) (95% CI)): 2.87 µM; activity at 0.3 µM [2]: 100%; activity at 3 µM [2]: 100%; activity at 33 µM [2]: 64%; CC50 [7]: > 200 µM

Which results are given for `O=C(N[C@@H](Cc1ccc(O)cc1)C(=O)O)c1cc(-c2ccc(F)cc2)c(=O)n2c1sc1ccc(OC3CCCCC3)cc12` [Compound 14]?
EC50 [2]: 1.09 µM; CC50 [3]: 62.2 µM; Cytotoxic effect microscopically visible ([4]; 33 µM): -

Which activity at 0.3 µM [1] does the source give for `O=C(N[C@@H](Cc1ccc(O)cc1)C(=O)O)c1cc(-c2ccccc2F)c(=O)n2c1sc1ccc(OC3CCCCC3)cc12` [Compound 15] here?
Its activity at 0.3 µM is 86%.

And the activity at 3 µM [1]?
The activity at 3 µM was 85%.

What about the activity at 33 µM [1] of the same compound?
Its activity at 33 µM is 40%.

What does the source list for `O=C(N[C@@H](Cc1ccc(O)cc1)C(=O)O)c1cc(-c2cccc(F)c2)c(=O)n2c1sc1ccc(OC3CCCCC3)cc12` [Compound 16]?
EC50 [1, 12]: 18.6 µM; EC50 [2]: 4.22 µM; CC50 [3]: 84.7 µM; CC50 [7]: 72.9 µM

With `O=C(N[C@@H](Cc1ccc(O)cc1)C(=O)O)c1cc(-c2ccccc2)c(=O)n2c1sc1ccc(OC3CCCC3)cc12` [Compound 17] as the compound, how does the “Cytotoxic effect microscopically visible” value ([4]; 33 µM) read?
The value was “-”.

For `CC(C)C(CC(=O)O)NC(=O)c1cc(-c2ccccc2)c(=O)n2c1sc1ccc(OC3CCCCC3)cc12` (centres unmarked) [Compound 19], which “Cytotoxic effect microscopically visible” value ([4]; 33 µM) is on record?
Its value is “-”.

And the “Cytotoxic effect microscopically visible” value [5]?
The value was “-”.

What about the “Cytotoxic effect microscopically visible” value [6] of the same compound?
The value was “-”.

With `O=C(O)C1CCN(C(=O)c2cc(-c3ccccc3)c(=O)n3c2sc2ccc(OC4CCCCC4)cc23)C1` (centres unmarked) [Compound 20] as the compound, how does the activity at 0.3 µM [1] read?
Its activity at 0.3 µM is 100%.

What about the activity at 3 µM [1] of the same compound?
The activity at 3 µM was 100%.

And the activity at 33 µM [1]?
The activity at 33 µM was 100%.

Which “Cytotoxic effect microscopically visible” value ([4]; 33 µM) does the source give for `CC(CC(=O)O)NC(=O)c1cc(-c2ccccc2)c(=O)n2c1sc1ccc(OC3CCCCC3)cc12` (centres unmarked) [Compound 21] here?
Its value is “-”.

What about the “Cytotoxic effect microscopically visible” value [5] of the same compound?
Its value is “-”.

What about the “Cytotoxic effect microscopically visible” value [6] of the same compound?
Its value is “-”.

With `CCN(CC)CCOc1ccc(-c2cc(C(=O)Oc3ccc(S(N)(=O)=O)cc3)c3sc4ccc(OC5CCCCC5)cc4n3c2=O)cc1` [Compound 22] as the compound, how does the “Cytotoxic effect microscopically visible” value ([4]; 33 µM) read?
The value was “-”.

And the “Cytotoxic effect microscopically visible” value [6]?
Its value is “-”.

For `NS(=O)(=O)c1ccc(OC(=O)c2cc(-c3ccccc3)c(=O)n3c2sc2ccc(OC4CCCCC4)cc23)cc1` [Compound 23], which EC50 [2] is on record?
Its EC50 is 0.23 µM.

What about the CC50 [3] of the same compound?
Its CC50 is 18.2 µM.

And the “Cytotoxic effect microscopically visible” value ([4]; 33 µM)?
The value was “-”.

Which “Cytotoxic effect microscopically visible” value ([4]; 33 µM) does the source give for `NS(=O)(=O)c1ccc(OC(=O)c2ccc(=O)n3c2sc2ccc(OC4CCCCC4)cc23)cc1` [Compound 24] here?
Its value is “-”.

And the “Cytotoxic effect microscopically visible” value [5]?
Its value is “-”.

What about the “Cytotoxic effect microscopically visible” value [6] of the same compound?
Its value is “-”.

With `O=C(N[C@@H](Cc1ccc(O)cc1)C(=O)O)c1cc(-c2cccs2)c(=O)n2c1sc1ccc(OC3CCCCC3)cc12` [Compound 25] as the compound, how does the EC50 [2] read?
Its EC50 is 0.29 µM.

And the EC50 [8]?
The EC50 was 13.7 µM.

What about the CC50 [3] of the same compound?
Its CC50 is 16.5 µM.

And the “Cytotoxic effect microscopically visible” value ([4]; 33 µM)?
The value was “-”.

And the CC50 [9]?
The CC50 was 86.1 µM.

With `O=C(N[C@@H](Cc1ccccc1)C(=O)O)c1cc(-c2ccccc2)c(=O)n2c1sc1ccc(OC3CCCCC3)cc12` [Compound 26] as the compound, how does the “Cytotoxic effect microscopically visible” value ([4]; 33 µM) read?
Its value is “-”.

What about the “Cytotoxic effect microscopically visible” value [5] of the same compound?
Its value is “-”.

Which EC50 [2] does the source give for `O=C(N[C@@H](Cc1ccc(O)cc1)C(=O)O)c1ccc(=O)n2c1sc1ccc(OC3CCCCC3)cc12` [Compound 27] here?
The EC50 was 10 µM.

And the CC50 [3]?
The CC50 was 189 µM.

With `CCN(CC)CCOc1ccc2sc3c(C(=O)Oc4ccc(S(N)(=O)=O)cc4)cc(-c4ccccc4)c(=O)n3c2c1` [Compound 28] as the compound, how does the “Cytotoxic effect microscopically visible” value ([4]; 33 µM) read?
Its value is “-”.

What about the “Cytotoxic effect microscopically visible” value [5] of the same compound?
The value was “-”.

And the “Cytotoxic effect microscopically visible” value [6]?
The value was “-”.

With `NS(=O)(=O)c1ccc(OC(=O)c2cc(NCCN3CCOCC3)c(=O)n3c2sc2ccc(OC4CCCCC4)cc23)cc1` [Compound 29] as the compound, how does the “Cytotoxic effect microscopically visible” value ([4]; 33 µM) read?
Its value is “-”.

And the “Cytotoxic effect microscopically visible” value [5]?
The value was “-”.

And the “Cytotoxic effect microscopically visible” value [6]?
Its value is “-”.

For `CCN(CC)CCCC(C)Nc1ccnc2cc(Cl)ccc12` (centres unmarked) [chloroquine, reference compound], which EC50 [2] is on record?
The EC50 was 0.19 µM.

For `CCOC(=O)C1=C[C@@H](OC(CC)CC)[C@H](NC(C)=O)[C@@H](N)C1` [oseltamivir, reference compound], which EC50 [8] is on record?
The EC50 was 0.17 µM.

And the CC50 [10]?
The CC50 was over 200 µM.

With `NC(=O)c1ncn([C@@H]2O[C@H](CO)[C@@H](O)[C@H]2O)n1` [ribavirin, reference compound] as the compound, how does the EC50 [1, 12] read?
The EC50 was 37 µM.

What about the CC50 [11] of the same compound?
The CC50 was over 2400 µM.
